This is an account of results in BindingDB's records for doi:10.1021/jm1011319 (AstraZeneca, 2011).

The target of assay [1] is T1, Signal transducer and activator of transcription 3 (Homo sapiens, UniProt P40763). As to the kind of experiment: Inhibition of Stat3 phosphorylation in human SET2 cells after 1 hr by Western blotting. On the technique in general: In western blotting, separated proteins are transferred to a membrane and probed.
The target of assay [2] is T1, Signal transducer and activator of transcription 3. As to the kind of experiment: Inhibition of Stat3 phosphorylation in human HEL cells after 1 hr by Western blotting.
Assay [3] deals with T2, Signal transducer and activator of transcription 5A (Homo sapiens, UniProt P42229).
T2 sequence (P42229 whole entry): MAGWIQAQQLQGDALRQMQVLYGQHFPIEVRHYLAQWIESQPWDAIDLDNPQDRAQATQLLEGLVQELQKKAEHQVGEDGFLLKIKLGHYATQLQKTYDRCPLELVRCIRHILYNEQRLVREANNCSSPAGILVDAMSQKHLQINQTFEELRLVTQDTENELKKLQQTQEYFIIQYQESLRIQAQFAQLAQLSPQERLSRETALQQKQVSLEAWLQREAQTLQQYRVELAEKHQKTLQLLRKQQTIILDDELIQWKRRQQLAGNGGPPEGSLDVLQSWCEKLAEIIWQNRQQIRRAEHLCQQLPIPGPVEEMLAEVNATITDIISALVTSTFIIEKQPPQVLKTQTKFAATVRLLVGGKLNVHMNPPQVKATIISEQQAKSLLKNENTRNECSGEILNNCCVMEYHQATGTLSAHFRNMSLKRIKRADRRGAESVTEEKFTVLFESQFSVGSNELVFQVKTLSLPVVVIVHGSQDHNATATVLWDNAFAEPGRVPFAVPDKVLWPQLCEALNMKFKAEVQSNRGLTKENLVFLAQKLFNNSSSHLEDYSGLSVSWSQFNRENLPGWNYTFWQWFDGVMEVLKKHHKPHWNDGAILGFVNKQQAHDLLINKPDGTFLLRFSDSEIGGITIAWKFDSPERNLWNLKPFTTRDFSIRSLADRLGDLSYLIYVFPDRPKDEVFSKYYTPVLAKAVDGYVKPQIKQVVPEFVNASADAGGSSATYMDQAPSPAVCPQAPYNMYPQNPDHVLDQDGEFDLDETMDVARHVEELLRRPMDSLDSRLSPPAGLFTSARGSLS
As to the kind of experiment: Inhibition of Stat5 phosphorylation in human SET2 cells after 1 hr by Western blotting.

For assay [4], the target named is T2, Signal transducer and activator of transcription 5A. As to the kind of experiment: Inhibition of Stat5 phosphorylation in human HEL cells after 1 hr by Western blotting.

T1 sequence (P40763 whole entry): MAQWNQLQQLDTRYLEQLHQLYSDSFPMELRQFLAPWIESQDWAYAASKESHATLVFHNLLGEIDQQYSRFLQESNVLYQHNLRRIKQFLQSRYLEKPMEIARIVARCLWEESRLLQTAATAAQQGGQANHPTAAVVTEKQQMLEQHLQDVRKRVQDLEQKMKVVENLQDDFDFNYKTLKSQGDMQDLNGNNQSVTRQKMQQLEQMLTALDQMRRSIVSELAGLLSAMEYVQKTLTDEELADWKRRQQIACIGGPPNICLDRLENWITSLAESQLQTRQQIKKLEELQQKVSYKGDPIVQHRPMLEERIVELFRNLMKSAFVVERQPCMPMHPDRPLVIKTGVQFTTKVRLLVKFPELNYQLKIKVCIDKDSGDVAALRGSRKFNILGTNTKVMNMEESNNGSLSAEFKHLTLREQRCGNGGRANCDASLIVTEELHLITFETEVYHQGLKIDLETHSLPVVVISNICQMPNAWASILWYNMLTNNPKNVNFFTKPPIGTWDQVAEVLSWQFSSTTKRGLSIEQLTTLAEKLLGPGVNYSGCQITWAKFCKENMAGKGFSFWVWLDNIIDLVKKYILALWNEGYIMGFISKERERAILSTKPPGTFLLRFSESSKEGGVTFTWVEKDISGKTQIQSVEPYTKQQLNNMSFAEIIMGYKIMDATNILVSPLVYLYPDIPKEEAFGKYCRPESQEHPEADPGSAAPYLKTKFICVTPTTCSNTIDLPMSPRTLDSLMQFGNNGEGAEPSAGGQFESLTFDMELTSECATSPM

Usually IC50 stands for the concentration that inhibits the measured activity by half. High values mean weaker potency, low ones greater potency. Consider `Cc1cc(Nc2nc(N[C@@H](C)c3ncc(F)cn3)ncc2Cl)[nH]n1` [5-Chloro-N2-[(1S)-1-(5-fluoropyrimidin-2-yl)ethyl]-N4-(5-methyl-1H-pyrazol-3-yl)pyrimidine-2,4-diamine], for which the 50% inhibitory concentration (IC50) came to 0.023 µM in assay [1], 0.08 µM in assay [2], 0.025 µM in assay [3] and 0.041 µM in assay [4].
